Columns and labels:
PIM1 [1] = biological target: T1, PIM1 (Homo sapiens, UniProt P11309); assay: Biochemical radiolabeled ATP kinase assay (Reaction Biology), PIM1; details: 10 μM ATP
T1 construct: purchased ProQinase, Freiburg, Germany 0186-0000-1
Text: The second assay used was Perkin Elmer's LANCE® Ultra kinase assay which uses a ULight™-labeled peptide substrate and an appropriate Europium-labeled anti-phospho antibody. When the substrate becomes phosphorylated by a kinase of interest, the phosphorylated site on the substrate is recognized by the Europium-labeled anti-phospho antibody. […] The intensity of light emission is proportional to the level of ULight peptide phosphorylation. A kinase inhibitor reduces the FRET signal, thus providing an accurate and sensitive measure of inhibition potency. […]
The standard protocol used for PIM3 was performed by Reaction Biology Corporation (Malvern, Pa.) using a capture assay performed in 20 mM HEPES at pH 7.5 containing 10 mM MgCl2, 10 mM MnCl2, 1 mM EGTA, 0.02% Brij35, 0.02 mg/mL BSA, 0.1 mM Na3VO4, 2 mM DTT, 0.02% Brij35, 10 μM ATP, and 20 μM peptide substrate […]. […] The bound ^33P-peptide substrate was quantified by scintillation counting and the disintegrations per minute (dpm) obtained, being directly proportional to the amount of ^33P-peptide produced by PIM3, were used to determine the IC50 for each compound. […]
The inhibitory activity of each compound against PIM kinases was measured with the radioisotope filter binding assay, a type of substrate phosphorylation assays, available at Reaction Biology Corporation (Mavern, Pa.).

PIM1 [2] = biological target: T1, PIM1; assay: LANCE Ultra kinase assay, PIM1; format: biochemical
Text: (§1) The second assay used was Perkin Elmer's LANCE® Ultra kinase assay which uses a ULight™-labeled peptide substrate and an appropriate Europium-labeled anti-phospho antibody. When the substrate becomes phosphorylated by a kinase of interest, the phosphorylated site on the substrate is recognized by the Europium-labeled anti-phospho antibody. […] The intensity of light emission is proportional to the level of ULight peptide phosphorylation. A kinase inhibitor reduces the FRET signal, thus providing an accurate and sensitive measure of inhibition potency.
(§2) The assay was performed in 384-well plates in two steps: PIM kinases were mixed with the ULight-substrate (CREBtide) in buffer and incubated for 10 min. Subsequently, ATP and molecules of the present disclosure were added in a kinase buffer at the appropriate concentration and the reactions were incubated for 1 hour, at room temperature in the dark. • After 1 h EDTA was added to stop the kinase reaction, Eu-W1024-labeled anti-phosphoserine-CREB (Ser133) Antibody (anti-phosphoCREBtide specific antibody) was added to the reaction in LANCE Detection buffer. The mixture was allowed to incubate for 30 min to allow binding of the antibody to the phosphorylated site before the plate was read using a Tecan microplate reader
(§3) Kinase Assay Buffer—50 mM HEPES pH7.0.1 mM EGTA, 10 mM MgCl2, 0.01% BRU-35.
(§4) The inhibitory activity of each compound against PIM kinases was measured with the LANCE® Ultra Kinase Assays by ChemDiv, Inc. (San Diego, Calif.).

PIM2 = biological target: T2, PIM2 (Homo sapiens, UniProt Q9P1W9); assay: LANCE Ultra kinase assay, PIM2; format: biochemical
T2 construct: purchased ProQinase, Freiburg, Germany 0223-0000-1
T2 sequence (Q9P1W9 whole entry): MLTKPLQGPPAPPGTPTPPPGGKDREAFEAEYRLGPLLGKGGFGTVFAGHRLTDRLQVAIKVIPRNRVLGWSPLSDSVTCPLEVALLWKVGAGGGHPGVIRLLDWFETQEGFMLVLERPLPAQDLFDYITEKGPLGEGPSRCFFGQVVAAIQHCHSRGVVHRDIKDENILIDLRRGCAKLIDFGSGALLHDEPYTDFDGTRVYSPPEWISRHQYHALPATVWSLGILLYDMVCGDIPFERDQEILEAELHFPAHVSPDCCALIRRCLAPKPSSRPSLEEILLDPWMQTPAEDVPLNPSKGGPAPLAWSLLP
Text: as §1, §2, §3, §4

PIM3 = biological target: T3, PIM3 (Homo sapiens, UniProt Q86V86); assay: LANCE Ultra kinase assay, PIM3; format: biochemical; details: LANCE assay
T3 construct: purchased SignalChem, Richmond, Canada P37-10BG
Text: as §1, §2, §3, §4

HepG2 = assay: CellTiter-Glo cancer cell growth inhibition, HepG2; format: cell-based, human; details: Homo sapiens, HepG2, 72 h
Text: The CellTiter-Glo® Luminescent Cell Viability Assay is a sensitive homogeneous method to determine the number of viable cells in culture, Detection is based on using the luciferase reaction to measure the amount of ATP from viable cells. The amount of ATP in cells correlates with cell viability. Within minutes after a loss of membrane integrity, cells lose the ability to synthesize ATP, and endogenous ATPases destroy any remaining ATP; thus the levels of ATP fall precipitously. The CellTiter-Glo® Reagent does three things upon addition to cells. It lyses cell membranes to release ATP; it inhibits endogenous ATPases, and it provides luciferin, luciferase and other reagents necessary to measure ATP using a bioluminescent reaction. The unique properties of a proprietary stable luciferase.
All assays were performed by Reaction Biology Corporation (Malvern, Pa.) or ChemDiv, Inc. (San Diego, Calif.). All cell lines were purchased from American Type Culture Collection (ATCC, Manassas, Va.), except Huh 7 (RIKEN, Toyo, Japan) and HepaRG (Life Technologies, Carlsbad, Calif.).
Stock solutions ([…]) were diluted with cell culture media to produce 500× serial dilutions and […] of final compound dilutions were added to cells in assay plates to screen a series of 10 doses starting at […]. Final DMSO concentration was 0.2%. Assay plates are centrifuged at 100 rpm, 1 minute and kept at 37° C., 5% CO2, humidified atmosphere. […] Luminescence intensity was measured for each well using the Tecan M 1000 microplate reader after 5 min of incubation with CellTiter-Glo Reagent. The number of viable cells in culture was determined based on quantitation of the ATP present in each culture well. […] The EC50 curves were plotted and […] values were calculated using the GraphPad Prism 4 program based on a sigmoidal dose-response equation.

T1 sequence (P11309 whole entry): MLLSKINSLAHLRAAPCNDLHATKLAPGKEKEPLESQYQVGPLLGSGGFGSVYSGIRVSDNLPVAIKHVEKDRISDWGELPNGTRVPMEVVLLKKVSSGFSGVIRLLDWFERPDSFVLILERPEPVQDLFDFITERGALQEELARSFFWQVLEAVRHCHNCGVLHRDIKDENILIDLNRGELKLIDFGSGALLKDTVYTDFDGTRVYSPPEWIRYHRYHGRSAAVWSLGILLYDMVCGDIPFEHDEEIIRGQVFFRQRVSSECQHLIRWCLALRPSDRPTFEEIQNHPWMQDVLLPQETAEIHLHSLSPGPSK

IC50 (PIM1 [1])	IC50 (PIM1 [2]; ATP 0.1 mM)	IC50 (PIM1 [2]; ATP 1 mM)	IC50 (PIM2; ATP 0.1 mM)	IC50 (PIM2; ATP 1 mM)	IC50 (PIM3; ATP 0.1 mM)	IC50 (PIM3; ATP 1 mM)	EC50 (HepG2)	Compound
0.98 nM	0.23 nM	0.82 nM	3.2 nM	4.9 nM	1 nM	4.3 nM	34 nM	O=C1NC(=O)c2c1c1c3ccccc3[nH]c1c1c2c2cc(F)c(O)cc2n1CCN1CCOCC1 [Compound 19, 3-fluoro-2-hydroxy-13-(2-morpholin-4-ylethyl)-12,13-dihydro-5H-indolo[2,3-a]pyrrolo[3,4-c]carbazole-5,7(6H)-dione]
1.8 nM		1.7 nM		41 nM		9.5 nM	76 nM	O=C1NC(=O)c2c1c1c3cc(F)c(O)cc3[nH]c1c1c2c2ccccc2n1CCN1CCOCC1 [Compound 18, 3-fluoro-2-hydroxy-12-(2-morpholin-4-ylethyl)-12,13-dihydro-5H-indolo[2,3-a]pyrrolo[3,4-c]carbazole-5,7(6H)-dione]
